Data from BindingDB's records for patent US11773085 (Foghorn Therapeutics, 2023).

Target: T1, Bromodomain-containing protein 9 [133-239] (Homo sapiens, UniProt Q9H8M2)
T1 construct: 133-239
T1 sequence (Q9H8M2 whole entry): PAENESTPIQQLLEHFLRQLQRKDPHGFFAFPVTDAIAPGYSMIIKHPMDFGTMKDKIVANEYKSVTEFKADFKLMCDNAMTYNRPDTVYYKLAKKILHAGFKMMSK
Experiment: BRD9 Bromodomain TR-FRET Competition Binding Assay
Method: A mixture of biotinylated-ligand and SureLight Allophycocyanin-Streptavidin (APC-SA, PerkinElmer AD0201) in 50 mM HEPES (pH 7.4), 50 mM NaCl, 1 mM TCEP (pH 7), 0.01% (v/v) Tween-20, 0.01% (w/v) bovine serum albumin was added to a white 384-well PerkinElmer Proxiplate Plus plate. DMSO or 3-fold serially diluted compounds were then added to the Proxiplate followed by addition of Flag-BRD9. After a 10 minute incubation at room temperature, Eu-W1024 anti-FLAG (PerkinElmer, AD0273) was added.

IC50 [nM] | SMILES
< 10 | CCS(=O)(=O)N(C)Cc1c(OC)cc(-c2cn(C)c(=O)c3cnccc23)cc1OC [US11773085, Compound B35]
< 10 | COc1cc(-c2cn(C)c(=O)c3cnccc23)cc(OC)c1CN(C)C(=O)CCCCCOc1cccc2c1C(=O)N(C1CCC(=O)NC1=O)C2=O (configuration not stated) [US11773085, Compound D4]
